Assay results taken from patent US9169241B2, “Quinolinyloxyphenylsulfonamides” (Max-Planck-Gesellschaft Zur Forderung der Wissenschaften …, priority 2009, dated 2015).
Where two headings read alike, the source gives them in different places.

Assays:
viable cells in culture = experiment: Cell viability assay at 10 μM (CellTiter-Glo, Table VII); type: cell-based; settings: compound 10 μM, 72 h;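 also: graded A 0-20%; B 21-40%; C 41-60%; D over 60% viable cells relative to DMSO control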
Description: (§1) The CellTiter-Glo® Luminescent Cell Viability Assay (Promega Corporation. Madison, Wis., USA) is method a determining the number of viable cells in culture based on quantification of the ATP being present which is an indicator of metabolically active cells was used according to manufacturers protocol. In detail the assay was performed in a 96 well format were 1000 cells/well were incubated with compound at concentration 10 μM as well as DMSO control for 72 h in 100 μl cell culture medium. Percentage of inhibition was calculated compared to ATP amount of DMSO control.

Hs578T [1] = experiment: Matrigel outgrowth assay/branching assay; type: cell-based; settings: Homo sapiens, Hs-578T; HS578T cell line; Table Ib; read-out: Total branching inhibition in Matrigel HS578T
Description: The Matrigel outgrowth assay is based on the ability of tumor cell to penetrate a solid gel of extracellular matrix proteins mimicking the metastasis formation in vivo. While cells with low invasive potential appear as roundish cell or cell cluster, cells with high invasive potential penetrate the Matrigel and form polymorphic structures. In detail 65 μl of Matrigel matrix (Matrigel™ Matrix, BD Biosciences, Bedford, Mass., USA) with a concentration of 3 mg/ml have been polymerized in 96 well plates for 1 h at 37° C. Subsequently 5000 cell/well were seeded into each well containing cell culture medium and indicated compound with concentrations of 3.125 μM, 1.56 μM and 0.78 μM as well as DMSO control. After 48 h, 72 h and 96 h images of cell were taken on an inverted microscope using a 5× objective (Zeiss Axiovert S100 microscope Carl Zeiss UK, Welwyn Garden City, UK). Only compound concentrations were total branching inhibition was evident were accounted as positive. Method was used as previously described, with some modifications (Thompson E W, et al. Association of increased basement membrane invasiveness with absence of estrogen receptor and expression of vimentin in human breast cancer cell lines. J Cell Physiol 1992; 150:534-44).

Hs578T [2] = experiment: Wound healing migration assay; type: cell-based; settings: Homo sapiens, Hs-578T; HS578T cell line; Table Ib
Description: This method mimics cell migration during wound healing in vivo. The basic steps involve creating a “wound” in a cell monolayer, capturing the images at the beginning and at regular intervals during cell migration to close the wound, and comparing the images to quantify the migration rate of the cells. In detail, 150000 cell/24 well have been seeded and allowed to form a monolayer overnight. Subsequently a “wound” or “scratch” has been performed with a 1000 μl pipette tip. The STDV of wound size is normally below 10% at time point t0. The assay was stopped by fixation with 0.05% Crystal violet/20% methanol when control scratches were closed. The assay was terminated between 48 h and 72 h depending on the migration potential of the indicated cell line. The “wounds” were visualized with a Zeiss Axiovert S100 microscope (Carl Zeiss UK, Welwyn Garden City, UK). The tested compounds were used at 12.5 μM, 6.25, 3.125 μM and DMSO control. IC50 values have been calculated as 50% wound size in between t0 and t48 or t72.

Hs578T [3] = experiment: Cell vitality assay (ATP assay, CellTiter-Glo); type: cell-based; settings: Homo sapiens, Hs-578T; HS578T cell line, 72 h; Table Ib; read-out: IC50 ATP-Assay HS578T after 72 h
Description: as §1, with “manufacturers protocol,” for “manufacturers protocol.”, “with indicated” for “with”, “concentration of 12.5 μM, 6.25 μM, 3.125 μM, 1.56 μM, 0.78 μM, 0.39 μM, 0.195” for “concentration 10”, “medium. IC50 values were calculated as 50%” for “medium. Percentage”, “of ATP amount” for “of inhibition was calculated”, “to” for “to ATP amount of”
Protocol for the CellTiter-Glo® Luminescent Cell Viability Assay • 1. Prepare opaque-walled multiwell plates with mammalian cells in culture medium, 100 μl per well for 96-well plates • 2. Prepare control wells containing medium without cells to obtain a value for background luminescence. • 3. Add the compound to be tested to experimental wells, and incubate according to culture protocol. • 4. Equilibrate the plate and its contents at room temperature for approximately 30 minutes. • 5. Add a volume of CellTiter-Glo® Reagent (Promega Corporation. Madison, Wis.) equal to the volume of cell culture medium present in each well. • 6. Mix contents for 2 minutes on an orbital shaker to induce cell lysis. • 7. Allow the plate to incubate at room temperature for 10 minutes to stabilize luminescent signal. • 8. Record luminescence on Microplate Luminometer LB96V (Berthold Tchnologies, Bad Wildbad, Germany). An integration time of 0.1 and 1 second per well

[4] = Homo sapiens, HCT-116, HCT116 def, read-out: percentage (%) of viable cells HCT 116def
[5] = Homo sapiens, HCT-116, HCT116 wt, read-out: percentage (%) of viable cells HCT 116wt
[6] = Homo sapiens, HT-29, HT29, read-out: percentage (%) of viable cells HT29
[7] = Homo sapiens, NCI-H358, H358, read-out: percentage (%) of viable cells H358
[8] = Homo sapiens, NCI-H1650, H1650, read-out: percentage (%) of viable cells H1650
[9] = Homo sapiens, NCI-H1666, H1666, read-out: percentage (%) of viable cells H1666
[10] = Homo sapiens, NCI-H1975, H1975, read-out: percentage (%) of viable cells H1975
[11] = Homo sapiens, NCI-H1993, H1993, read-out: percentage (%) of viable cells H1993
[12] = Homo sapiens, A549, read-out: percentage (%) of viable cells A549
[13] = Homo sapiens, HCC827, read-out: percentage (%) of viable cells HCC827
[14] = Homo sapiens, SW480, read-out: percentage (%) of viable cells SW480
[15] = RKO, read-out: percentage (%) of viable cells RKO

Compound	viability at 10 µM (viable cells in culture; [4]) [%]	viability at 10 µM (viable cells in culture; [5]) [%]	viability at 10 µM (viable cells in culture; [6]) [%]	viability at 10 µM (viable cells in culture; [7]) [%]	viability at 10 µM (viable cells in culture; [8]) [%]	viability at 10 µM (viable cells in culture; [9]) [%]	viability at 10 µM (viable cells in culture; [10]) [%]	viability at 10 µM (viable cells in culture; [11]) [%]	viability at 10 µM (viable cells in culture; [12]) [%]	viability at 10 µM (viable cells in culture; [13]) [%]	viability at 10 µM (viable cells in culture; [14]) [%]	viability at 10 µM (viable cells in culture; [15]) [%]	melting point [°C]	IC50 (Hs578T [1]) [µM]	IC50 (Hs578T [2]) [µM]	IC50 (Hs578T [3]) [µM]
COc1cc2c(Oc3ccc(NS(=O)(=O)c4cccc(-c5ccccc5)c4)cc3F)ccnc2cc1OCCCN1CCN(C)CC1 [Example 13, Biphenyl-3-sulfonic acid (3-fluoro-4-{6-methoxy-7-[3-(4-methyl-piperazin-1-yl)-propoxy]-quinolin-4-yloxy}-phenyl)-amide]	0 to 20	0 to 20	0 to 20	0 to 20	21 to 40	0 to 20	0 to 20	0 to 20	21 to 40	0 to 20	0 to 20	0 to 20	190 to 191			
COc1cc2c(Oc3ccc(NS(=O)(=O)c4ccccc4Br)cc3F)ccnc2cc1OCCCN1CCN(C)CC1 [Example 19, 2-Bromo-N-(3-fluoro-4-{6-methoxy-7-[3-(4-methyl-piperazin-1-yl)-propoxy]-quinolin-4-yloxy}-phenyl)-benzenesulfonamide]	21 to 40	0 to 20	0 to 20	0 to 20	21 to 40	21 to 40	21 to 40	0 to 20	21 to 40	21 to 40	0 to 20	0 to 20	98 to 101			
COc1cc2c(Oc3ccc(NS(=O)(=O)c4cc(Cl)ccc4Cl)cc3F)ccnc2cc1OCCCN1CCN(C)CC1 [Example 20, 2,5-Dichloro-N-(3-fluoro-4-{6-methoxy-7-[3-(4-methyl-piperazin-1-yl)-propoxy]-quinolin-4-yloxy}-phenyl)-benzenesulfonamide]	21 to 40	0 to 20	0 to 20	0 to 20	21 to 40	21 to 40	21 to 40	21 to 40	> 60	41 to 60	0 to 20	0 to 20	134 to 136			
COc1cc2c(Oc3ccc(NS(=O)(=O)c4cccc(F)c4)cc3F)ccnc2cc1OCCCN1CCN(C)CC1 [Example 22]	21 to 40	21 to 40	0 to 20	0 to 20	21 to 40	21 to 40	0 to 20	0 to 20	> 60	21 to 40	0 to 20	21 to 40	82 to 84			
COc1cc2c(Oc3ccc(NS(=O)(=O)c4ccc(F)c(Cl)c4)cc3F)ccnc2cc1OCCCN1CCN(C)CC1 [Example 23, 3-Chloro-4-fluoro-N-(3-fluoro-4-{6-methoxy-7-[3-(4-methyl-piperazin-1-yl)-propoxy]-quinolin-4-yloxy}-phenyl)-benzenesulfonamide]	0 to 20	0 to 20	0 to 20	0 to 20	21 to 40	21 to 40	0 to 20	0 to 20	41 to 60	21 to 40	0 to 20	0 to 20	108 to 110			
CCOC(=O)COc1cc2nccc(Oc3ccc(NS(=O)(=O)c4ccccc4F)cc3F)c2cc1OC [Example 92, {4-[2-Fluoro-4-(2-fluoro-benzenesulfonylamino)-phenoxy]-6-methoxy-quinolin-7-yloxy}-acetic acid ethyl ester]													87 to 89	10 to 25	12.5 to 50	≤ 12.5
COc1cc2c(Oc3ccc(NS(=O)(=O)c4ccccc4C(F)(F)F)cc3F)ccnc2cc1OCCCNC(=O)OC(C)(C)C [Example 120, (3-{4-[2-Fluoro-4-(2-trifluoromethyl-benzenesulfonylamino)-phenoxy]-6-methoxy-quinolin-7-yloxy}-propyl)-carbamic acid tert-butyl ester]													80 to 82	10 to 25	12.5 to 50	12.5 to 50
COc1cc2c(Oc3ccc(NS(=O)(=O)c4cc(F)ccc4F)cc3F)ccnc2cc1OCCCNC(=O)OC(C)(C)C [Example 121, (3-{4-[4-(2,5-Difluoro-benzenesulfonylamino)-2-fluoro-phenoxy]-6-methoxy-quinolin-7-yloxy}-propyl)-carbamic acid tert-butyl ester]													115 to 118	10 to 25	12.5 to 50	12.5 to 50
COc1cc2c(Oc3cccc(NS(=O)(=O)c4c(F)cccc4F)c3)ccnc2cc1OCCCN1CCN(C)CC1 [Example 125, 2,6-Difluoro-N-(3-{6-methoxy-7-[3-(4-methyl-piperazin-1-yl)-propoxy]-quinolin-4-yloxy}-phenyl)-benzenesulfonamide]													171 to 172	10 to 25	≤ 12.5	≤ 12.5
COc1cc2c(Oc3ccc(NS(=O)(=O)c4cnc(C)[nH]4)cc3F)ccnc2cc1OCCCN1CCOCC1 [Example 169, 2-Methyl-3H-imidazole-4-sulfonic acid {3-fluoro-4-[6-methoxy-7-(3-morpholin-4-yl-propoxy)-quinolin-4-yloxy]-phenyl}-amide]														10 to 25	12.5 to 50	12.5 to 50
COc1cc2c(Oc3cc(NS(=O)(=O)c4cc(F)ccc4F)ccc3F)ccnc2cc1OCCCN1CCC(C)CC1 [Example 187, 2,5-Difluoro-N-(4-fluoro-3-{6-methoxy-7-[3-(4-methyl-piperidin-1-yl)-propoxy]-quinolin-4-yloxy}-phenyl)-benzenesulfonamide]														≤ 10	≤ 12.5	≤ 12.5
